Laboratory results published in patent publication US20090306112A1, “ANTIVIRAL PROTEASE INHIBITORS” (Gilead Sciences, Inc., priority 2006, published 2009).

target: T1, recombinant HIV-1 protease expressed in E. Coli (Human immunodeficiency virus type 1 group M subtype B, UniProt P04585); assay: HIV-1 Protease Enzyme Assay (Ki), fluorimetric detection of hexapeptide substrate cleavage; type: biochemical; conditions: tight-binding competitive inhibition; 37° C., pH 5.3, final substrate concentration 40 μM, enzyme 1 to 2.5 nM
T1 construct: Enzyme: recombinant HIV-1 protease expressed in E. Coli; purchased Bachem California, Inc. (Torrance, Calif.) H-9040; host or cells: E. coli
Text: Biological Assays Used for the Characterization of HIV Protease Inhibitors HIV-1 Protease Enzyme Assay (Ki)
The assay is based on the fluorimetric detection of synthetic hexapeptide substrate cleavage by HIV-1 protease in a defined reaction buffer as initially described by M. V. Toth and G. R. Marshall, Int. J. Peptide Protein Res. 36, 544 (1990)
Substrate: (2-aminobenzoyl)Thr-Ile-Nle-(p-nitro)Phe-Gln-Arg
Substrate supplied by Bachem California, Inc. (Torrance, Calif.; Cat. no. H-2992)
Enzyme: recombinant HIV-1 protease expressed in E. Coli
Enzyme supplied by Bachem California, Inc. (Torrance, Calif.; Cat. no. H-9040)
Reaction buffer: • 100 mM ammonium acetate, pH 5.3 • 1 M sodium chloride • 1 mM ethylendiaminetetraacetic acid • 1 mM dithiothreitol • 10% dimethylsulfoxide
Assay Protocol for the Determination of Inhibition Constant Ki:
• 1. Prepare series of solutions containing identical amount of the enzyme (1 to 2.5 nM) and a tested inhibitor at different concentrations in the reaction buffer • 2. Transfer the solutions (190 uL each) into a white 96-well plate • 3. Preincubate for 15 min at 37° C. • 4. Solubilize the substrate in 100% dimethylsulfoxide at a concentration of 800 μM. Start the reaction by adding 10 μL of 800 μM substrate into each well (final substrate concentration of 40 μM) • 5. Measure the real-time reaction kinetics at 37° C. by using Gemini 96-well plate fluorimeter (Molecular Devices, Sunnyvale, Calif.) at λ(Ex)=330 nm and λ(Em)=420 nm • 6. Determine initial velocities of the reactions with different inhibitor concentrations and calculate Ki (in picomolar concentration units) value by using EnzFitter program (Biosoft, Cambridge, U.K.) according to an algorithm for tight-binding competitive inhibition described by Ermolieff J., Lin X., and Tang J., Biochemistry 36, 12364 (1997)

SMILES	Ki
COC(=O)NC(C(=O)NN(Cc1ccc(OCc2ccoc2)cc1)C[C@H](O)[C@H](Cc1ccc(OC)cc1)NC(=O)O[C@H]1CO[C@H]2OCC[C@H]21)C(C)(C)C (some centres unmarked) [Example V]	< 30 pM
CC(C)OC(=O)NC(C(=O)NN(Cc1ccc(-c2ccccn2)cc1)C[C@H](O)[C@H](Cc1ccccc1)NC(=O)O[C@H]1CO[C@H]2OCC[C@H]21)C(C)(C)C (some centres unmarked) [Example J]	< 30 pM
COC(=O)NC(C(=O)NN(Cc1ccc(OCc2ccncc2)cc1)C[C@H](O)[C@H](Cc1ccc(OC)cc1)NC(=O)O[C@H]1CO[C@H]2OCC[C@H]21)C(C)(C)C (some centres unmarked) [Example T]	< 30 pM
CC(C)(C)C(NC(=O)OCc1cscn1)C(=O)NN(Cc1ccc(-c2ccccn2)cc1)C[C@H](O)[C@H](Cc1ccccc1)NC(=O)O[C@H]1CO[C@H]2OCC[C@H]21 (some centres unmarked) [Example M]	< 30 pM
CC(C)(C)C(NC(=O)C(F)(F)F)C(=O)NN(Cc1ccc(-c2ccccn2)cc1)C[C@H](O)[C@H](Cc1ccccc1)NC(=O)O[C@H]1CO[C@H]2OCC[C@H]21 (some centres unmarked) [Example N]	< 30 pM
COC(=O)NC(C(=O)NN(Cc1ccc(-c2ccccn2)cc1)C[C@H](O)[C@H](Cc1ccccc1)NC(=O)O[C@H]1C(=O)OCC1(C)C)C(C)(C)C (some centres unmarked) [Example C]	< 30 pM
COC(=O)NC(C(=O)NN(Cc1ccc(-c2ccncc2)cc1)C[C@H](O)[C@H](Cc1ccc(OC)cc1)NC(=O)O[C@H]1CO[C@H]2OCC[C@H]21)C(C)(C)C (some centres unmarked) [Example Q]	< 30 pM
Cc1cccc(C)c1OCC(=O)NN(Cc1ccc(-c2ccccn2)cc1)C[C@H](O)[C@H](Cc1ccccc1)NC(=O)O[C@H]1CO[C@H]2OCC[C@H]21 [Example AN]	< 30 pM
